Measurements from patent publication US11001587B2, “Substituted indazoles as phosphatidylinositol kinase inhibitors” (CUROVIR AB, priority 2017, dated 2021).

Tests used:
Type in all cases: cell-based
polio virus Sabin 1 = assay: organism not typed; settings: read-out: Polio 1 inhibition capacity (IC50)
coxsackie B4 virus = assay: In vitro CPE assay in mammalian cell culture, B4; settings: Enterovirus B, viral cytopathic effect in mammalian cell culture, read-out: B4 inhibition capacity (IC50)
coxsackie B2 virus = assay: In vitro CPE assay in mammalian cell culture, B2; settings: viral cytopathic effect in mammalian cell culture, read-out: B2 inhibition capacity (IC50)
Enterovirus 68 = assay: In vitro CPE assay in mammalian cell culture, EV68; settings: Enterovirus D, viral cytopathic effect in mammalian cell culture, read-out: EV68 inhibition capacity (IC50)
coxsackie B3 virus = assay: In vitro CPE assay in mammalian cell culture, B3; settings: Enterovirus B, viral cytopathic effect in mammalian cell culture, read-out: B3 inhibition capacity (IC50)
Enterovirus 71 = assay: In vitro CPE assay in mammalian cell culture, EV71; settings: Enterovirus A, viral cytopathic effect in mammalian cell culture, read-out: EV71 inhibition capacity (IC50)
Enterovirus 6 = assay: In vitro CPE assay in mammalian cell culture, EV6; settings: viral cytopathic effect in mammalian cell culture, read-out: EV6 inhibition capacity (IC50)
Enterovirus 30 = assay: In vitro CPE assay in mammalian cell culture, EV30; settings: viral cytopathic effect in mammalian cell culture, read-out: EV30 inhibition capacity (IC50)
coxsackie B1 virus = assay: In vitro CPE assay in mammalian cell culture, B1; settings: viral cytopathic effect in mammalian cell culture, read-out: B1 inhibition capacity (IC50)
coxsackie B5 virus = assay: In vitro CPE assay in mammalian cell culture, B5; settings: viral cytopathic effect in mammalian cell culture, read-out: B5 inhibition capacity (IC50)

| SMILES | IC50 (polio virus Sabin 1) [nM] | IC50 (coxsackie B4 virus) [nM] | IC50 (coxsackie B2 virus) [nM] | IC50 (Enterovirus 68) [nM] | IC50 (coxsackie B3 virus) [nM] | IC50 (Enterovirus 71) [nM] | IC50 (Enterovirus 6) [nM] | IC50 (Enterovirus 30) [nM] | IC50 (coxsackie B1 virus) [nM] | IC50 (coxsackie B5 virus) [nM] |
| --- | --- | --- | --- | --- | --- | --- | --- | --- | --- | --- |
| Cc1cc(NCc2cccs2)c2nc(C)c(-c3ccc4c(c3)c(C)nn4C)n2n1 [Example 5, 3-(1,3-dimethyl-1H-indazol-5-yl)-2,6-dimethyl-N-(thiophen-2-ylmethyl)imidazo[1,2-b]pyridazin-8-amine] | < 100 | < 100 | < 100 | < 1000 | < 100 | < 100 | < 100 | < 100 | < 1 | – |
| Cc1cc(NCc2ccccc2)n2nc(C)c(-c3ccc4c(c3)c(C)nn4C)c2n1 [Example 18, N-(benzyl)-3-(1,3-dimethyl-1H-indazol-5-yl)-2,5-dimethylpyrazolo[1,5-a]pyrimidin-7-amine] | < 100 | < 1000 | < 100 | – | < 100 | < 10 | < 1000 | – | – | < 1000 |
| Cc1cc(NCc2ccc(F)cc2)n2nc(C)c(-c3ccc4c(c3)c(C)nn4C)c2n1 [Example 19, N-(4-fluorobenzyl)-3-(1,3-dimethyl-1H-indazol-5-yl)-2,5-dimethylpyrazolo[1,5-a]pyrimidin-7-amine] | < 1000 | < 1000 | < 1000 | – | < 100 | < 100 | < 1000 | – | – | < 1000 |
| Cc1cc(NCc2ccc(C(F)(F)F)nc2)n2nc(C)c(-c3ccc4c(c3)c(C)nn4C)c2n1 [Example 17, 3-(1,3-dimethyl-1H-indazol-5-yl)-2,5-dimethyl-N-((6-trifluoromethylpyridin-3-yl)methyl)pyrazolo[1,5-a]pyrimidin-7-amine] | < 1000 | < 1000 | < 1000 | – | < 1000 | < 100 | < 1000 | < 1000 | – | < 1000 |
| COc1ccc(CNc2cc(C)nn3c(-c4ccc5c(c4)c(C)nn5C)c(C)nc23)cc1 [Example 6, 3-(1,3-dimethyl-1H-indazol-5-yl)-N-(4-methoxybenzyl)-2,6-dimethylimidazo[1,2-b]pyridazin-8-amine] | < 1000 | < 1000 | < 1000 | < 1000 | < 1000 | – | – | < 1000 | < 1000 | < 1000 |
| COc1ccc(CNc2cc(C)nn3c(-c4ccc5c(c4)c(C)nn5C)c(C)nc23)cn1 [Example 4, 3-(1,3-dimethyl-1H-indazol-5-yl)-N-((6-methoxypyridin-3-yl)methyl)-2,6-dimethylimidazo[1,2-b]pyridazin-8-amine] | < 1000 | < 100 | < 100 | < 1000 | < 100 | < 100 | < 1000 | < 100 | < 100 | – |
| Cc1nc(NCc2cccs2)n2nc(C)c(-c3ccc4c(c3)c(C)nn4C)c2n1 [Example 27, 8-(1,3-dimethyl-1H-indazol-5-yl)-2,7-dimethyl-N-(thiophen-2-ylmethyl)pyrazolo[1,5-a][1,3,5]triazin-4-amine] | < 100 | < 1 | < 1 | < 100 | < 10 | < 100 | < 100 | < 100 | < 1 | – |
| COc1ccc(CNc2nc(C)nc3c(-c4ccc5c(c4)c(C)nn5C)c(C)nn23)cc1 [Example 21, 8-(1,3-dimethyl-1H-indazol-5-yl)-N-(4-methoxybenzyl)-2,7-dimethylpyrazolo[1,5-a][1,3,5]triazin-4-amine] | < 10 | < 1000 | < 1000 | < 1000 | < 100 | < 100 | – | < 1000 | < 1000 | < 1000 |
